According to publication PMC7037732, “Synthesis of Combretastatin A-4 and 3′-Aminocombretastatin A-4 derivatives with Aminoacid Containing Pendants and Study of their Interaction with Tubulin and as Downregulators of the VEGF, hTERT and c-Myc Gene Expression” (Molecules, 2020):
Where “and” joins values, the source holds several entries; their conditions need not be identical. Equal values may be shown once. Entries after “also recorded” stand apart in the source; their conditions may differ.

How the values were obtained:
tubulin = test: In vitro tubulin polymerization by turbidimetry (It50); assay type: biochemical; settings: turbidimetry at 350 nm, 37 °C; for It50 (time required to reach 50% of the polymerization): control 16.6 ± 1.0; for Effect on in vitro tubulin polymerization: result in words
Protocol: Figure 3 also includes polymerization curves in the presence of CA-4, AmCA-4 and paclitaxel. This test was also performed using paclitaxel, a microtubule stabilizing agent, as a control for the complete formation of microtubules (see Figure 3).

[1] = system: MCF-7 (breast adenocarcinoma); test: Inhibition of cell proliferation (MTT), MCF-7; assay type: cell-based, human; settings: 48 h of treatment (footnote), average ±SD of three experiments
A-549 cells = test: Cell cycle distribution by flow cytometry; assay type: cell-based, human
How it was run: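 A-549 cells were harvested, fixed in cold 70% ethanol (30 min, −20 °C), then stained with 50 µg/mL propidium iodide plus 100 µg/mL RNase A in PBS for 20 min at room temperature in the dark. Flow cytometry used 488 nm excitation and 620 nm emission, giving the percentage of cells in G2/M.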

[2] = system: A-549 (human pulmonary adenocarcinoma); test: Inhibition of cell proliferation (MTT), A-549; assay type: cell-based; settings: Homo sapiens, A549, 48 h, 48 h of treatment (footnote), average ±SD of three experiments
How it was run: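 Antiproliferative activity against A-549 human pulmonary adenocarcinoma cells was measured by MTT assay. Cells were seeded at 25,000/mL in 96-well plates, cultured 24 h, then exposed to compounds at various concentrations. MTT (20 µL, 5 mg·mL^−1) was added for 2 h at 37 °C, formazan dissolved in 200 µL DMSO, and absorbance read at 540 nm. IC50 values came graphically from three independent experiments.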

[3] = Homo sapiens, MCF7, 48 h, Table 2
[4] = A-549, 24 h, concentration per compound as in Tables 6 and 7
[5] = Homo sapiens, MCF7, 48 h, Table 1
[6] = A-549, 24 h, concentration per compound as in Tables 6 and 7, control 14%

SMILES: COc1ccc(/C=C\c2cc(OC)c(OC)c(OC)c2)cc1NC(=O)CNC(=O)OCC1c2ccccc2-c2ccccc21 [Compound 7.1]
- It50 (time required to reach 50% of the polymerization) (tubulin): 16 ± 3 min
- IC50 [1, 3]: 0.0048 ± 0.0005 µM
- G0/G1 (A-549 cells; A-549, 24 h, 0.5 µM): 28 ± 1%
- G2/M (A-549 cells; A-549, 24 h, 0.5 µM): 54 ± 1%
- S (A-549 cells; A-549, 24 h, 0.5 µM): 18 ± 2%
- IC50 ([2]; Table 2): 0.186 ± 0.011 µM

SMILES: COc1ccc(/C=C\c2cc(OC)c(OC)c(OC)c2)cc1NC(=O)[C@@H](N)CCSC [Compound 8.9]
- IC50 [1, 3]: < 0.005 µM
- IC50 ([1]; Table 2): 0.0034 ± 0.0012 µM
- G0/G1 (A-549 cells; A-549, 24 h, 0.2 µM): 30 ± 1%
- G2/M (A-549 cells; A-549, 24 h, 0.2 µM): 51 ± 2%
- S (A-549 cells; A-549, 24 h, 0.2 µM): 19 ± 1%
- IC50 ([2]; Table 2): 0.09 ± 0.03 µM

SMILES: COc1ccc(/C=C\c2cc(OC)c(OC)c(OC)c2)cc1O [CA-4, combretastatin A-4]
- Effect on in vitro tubulin polymerization (tubulin): almost no absorbance is detected
- IC50 ([1]; Homo sapiens, MCF7, Table 1): 1 ± 0.2 µM
- cells accumulated in the G2/M phase (A-549 cells; 24 h): 60%
- G0/G1 (A-549 cells; A-549, 24 h, 0.05 μM): 25 ± 1%
- G2/M (A-549 cells; A-549, 24 h, 0.05 μM): 60 ± 2%
- S (A-549 cells; A-549, 24 h, 0.05 μM): 15 ± 1%
- IC50 ([2]; Table 1): 0.428 ± 0.004 µM

SMILES: COc1ccc(/C=C\c2cc(OC)c(OC)c(OC)c2)cc1NC(=O)[C@@H](N)C(C)C [Compound 8.3]
- IC50 [1, 3]: 0.013 ± 0.002 µM
- G0/G1 (A-549 cells; A-549, 24 h, 2 µM): 65 ± 2%
- G2/M (A-549 cells; A-549, 24 h, 2 µM): 15 ± 2%
- S (A-549 cells; A-549, 24 h, 2 µM): 20 ± 1%
- Effect on the cell cycle (A-549 cells; [4]): do not accumulate a high percentage of cells in phase G2/M
- IC50 ([2]; Table 2): 0.49 ± 0.1 µM

SMILES: COc1ccc(/C=C\c2cc(OC)c(OC)c(OC)c2)cc1NC(=O)CN [Compound 8.1]
- It50 (time required to reach 50% of the polymerization) (tubulin): 18.5 ± 2.1 min
- IC50 [1, 3]: 0.009 ± 0.004 µM
- G0/G1 (A-549 cells; A-549, 24 h, 2 µM): 32 ± 5%
- G2/M (A-549 cells; A-549, 24 h, 2 µM): 46 ± 4%
- S (A-549 cells; A-549, 24 h, 2 µM): 22 ± 2%
- IC50 ([2]; Table 2): 0.4 ± 0.07 µM

SMILES: COc1ccc(/C=C\c2cc(OC)c(OC)c(OC)c2)cc1OCC(=O)N[C@@H](CCSC)C(=O)O [Compound 4.9]
- IC50 [1, 5]: 13 ± 2 µM
- G0/G1 (A-549 cells; A-549, 24 h, 75 μM): 76%
- G2/M (A-549 cells; A-549, 24 h, 75 μM): 13%
- S (A-549 cells; A-549, 24 h, 75 μM): 11%
- Effect on the cell cycle (A-549 cells; [4]): do not exert any significant effect on the cells
- IC50 ([2]; Table 1): > 300 µM

SMILES: COc1ccc(/C=C\c2cc(OC)c(OC)c(OC)c2)cc1NC(=O)[C@H](C)N [Compound 8.2]
- It50 (time required to reach 50% of the polymerization) (tubulin): 48 ± 5 min
- Effect on in vitro tubulin polymerization (tubulin): able to delay the polymerization process; also recorded: partial inhibitors of the polymerization process; also recorded: partial inhibitors of the in vitro polymerization of tubulin
- IC50 [1, 3]: < 0.005 µM
- IC50 ([1]; Table 2): 0.0048 ± 0.0005 µM
- G0/G1 (A-549 cells; A-549, 24 h, 3 µM): 28 ± 1%
- G2/M (A-549 cells; A-549, 24 h, 3 µM): 58 ± 5%
- S (A-549 cells; A-549, 24 h, 3 µM): 14 ± 4%
- IC50 ([2]; Table 2): 0.611 ± 0.016 µM

SMILES: COc1ccc(/C=C\c2cc(OC)c(OC)c(OC)c2)cc1NC(=O)[C@H](CCSC)NC(=O)OCC1c2ccccc2-c2ccccc21 [Compound 7.9]
- IC50 [1, 3]: 0.0051 ± 0.0003 µM
- G0/G1 (A-549 cells; A-549, 24 h, 2 µM): 72 ± 2%
- G2/M (A-549 cells; A-549, 24 h, 2 µM): 10 ± 3%
- S (A-549 cells; A-549, 24 h, 2 µM): 18 ± 1%
- Effect on the cell cycle (A-549 cells; [4]): do not accumulate a high percentage of cells in phase G2/M
- IC50 ([2]; Table 2): 0.407 ± 0.023 µM

SMILES: COc1ccc(/C=C\c2cc(OC)c(OC)c(OC)c2)cc1N [AmCA-4, 3′-aminocombretastatin A-4]
- Effect on in vitro tubulin polymerization (tubulin): almost no absorbance is detected
- IC50 [1, 3]: 0.008 ± 0.001 µM
- G0/G1 (A-549 cells; A-549, 24 h, 0.125 µM): 26 ± 1%
- G2/M (A-549 cells; A-549, 24 h, 0.125 µM): 59 ± 2%
- S (A-549 cells; A-549, 24 h, 0.125 µM): 15 ± 2%
- IC50 ([2]; Table 2): 0.117 ± 0.007 µM

SMILES: COc1ccc(/C=C\c2cc(OC)c(OC)c(OC)c2)cc1OCC(=O)N1CCC[C@@H]1C(=O)O [Compound 6.4]
- IC50 [1, 5]: 55 ± 13 µM
- G0/G1 (A-549 cells; A-549, 24 h, 75 μM): 71%
- G2/M (A-549 cells; A-549, 24 h, 75 μM): 15%
- S (A-549 cells; A-549, 24 h, 75 μM): 14%
- Effect on the cell cycle (A-549 cells; [4]): do not exert any significant effect on the cells
- IC50 ([2]; Table 1): 95 ± 14 µM

SMILES: COc1ccc(/C=C\c2cc(OC)c(OC)c(OC)c2)cc1OCC(=O)NCC(=O)O [Compound 4.1]
- IC50 [1, 5]: 6 ± 1 µM
- G0/G1 (A-549 cells; A-549, 24 h, 75 μM): 68%
- G2/M (A-549 cells; A-549, 24 h, 75 μM): 20%
- S (A-549 cells; A-549, 24 h, 75 μM): 12%
- Effect on the cell cycle (A-549 cells; [4]): do not exert any significant effect on the cells
- IC50 ([2]; Table 1): 24 ± 4 µM

SMILES: COc1ccc(/C=C\c2cc(OC)c(OC)c(OC)c2)cc1NC(=O)[C@H](Cc1ccccc1)NC(=O)OCC1c2ccccc2-c2ccccc21 [Compound 7.5]
- IC50 [1, 3]: 0.014 ± 0.004 µM
- G0/G1 (A-549 cells; A-549, 24 h, 2 µM): 34 ± 2%
- G2/M (A-549 cells; A-549, 24 h, 2 µM): 46 ± 3%
- S (A-549 cells; A-549, 24 h, 2 µM): 20 ± 1%
- IC50 ([2]; Table 2): 0.27 ± 0.05 µM

SMILES: COc1ccc(/C=C\c2cc(OC)c(OC)c(OC)c2)cc1OCC(=O)N[C@H](C(=O)O)C(C)C [Compound 4.2]
- IC50 ([1]; Homo sapiens, MCF7, Table 1): 7 ± 1 µM
- G0/G1 (A-549 cells; A-549, 24 h, 50 μM): 17 ± 2%
- G2/M (A-549 cells; A-549, 24 h, 50 μM): 67 ± 4%
- S (A-549 cells; A-549, 24 h, 50 μM): 16 ± 3%
- cells accumulated in the G2/M phase (A-549 cells; [6]): 50–70%
- IC50 ([2]; Table 1): 17 ± 2 µM

SMILES: COc1ccc(/C=C\c2cc(OC)c(OC)c(OC)c2)cc1OCC(=O)N[C@H](CC(C)C)C(=O)O [Compound 6.2]
- IC50 [1, 5]: 25 ± 2 µM
- G0/G1 (A-549 cells; A-549, 24 h, 75 μM): 85 ± 1%
- G2/M (A-549 cells; A-549, 24 h, 75 μM): 12 ± 1%
- S (A-549 cells; A-549, 24 h, 75 μM): 3 ± 2%
- Effect on the cell cycle (A-549 cells; [4]): do not exert any significant effect on the cells
- IC50 ([2]; Table 1): 68 ± 1 µM

SMILES: COc1ccc(/C=C\c2cc(OC)c(OC)c(OC)c2)cc1OCC(=O)N[C@H](CO)C(=O)O [Compound 6.5]
- IC50 [1, 5]: 12 ± 1 µM
- G0/G1 (A-549 cells; A-549, 24 h, 75 μM): 64%
- G2/M (A-549 cells; A-549, 24 h, 75 μM): 18%
- S (A-549 cells; A-549, 24 h, 75 μM): 18%
- Effect on the cell cycle (A-549 cells; [4]): do not exert any significant effect on the cells
- IC50 ([2]; Table 1): > 150 µM

SMILES: COc1ccc(/C=C\c2cc(OC)c(OC)c(OC)c2)cc1OCC(=O)N[C@H](Cc1ccccc1)C(=O)O [Compound 6.3]
- IC50 ([1]; Homo sapiens, MCF7, Table 1): 43 ± 3 µM
- G0/G1 (A-549 cells; A-549, 24 h, 75 μM): 74 ± 3%
- G2/M (A-549 cells; A-549, 24 h, 75 μM): 14 ± 2%
- S (A-549 cells; A-549, 24 h, 75 μM): 11 ± 6%
- Effect on the cell cycle (A-549 cells; [4]): do not exert any significant effect on the cells
- IC50 ([2]; Table 1): 60 ± 4 µM

SMILES: COc1ccc(/C=C\c2cc(OC)c(OC)c(OC)c2)cc1NC(=O)[C@@H](N)Cc1ccccc1 [Compound 8.5]
- G0/G1 (A-549 cells; A-549, 24 h, 0.5 µM): 46 ± 2%
- G2/M (A-549 cells; A-549, 24 h, 0.5 µM): 26 ± 10%
- S (A-549 cells; A-549, 24 h, 0.5 µM): 28 ± 11%
- IC50 ([2]; Table 2): 0.141 ± 0.003 µM

SMILES: COc1ccc(/C=C\c2cc(OC)c(OC)c(OC)c2)cc1NC(=O)[C@@H](N)C(C)O (some centres unmarked) [Compound 8.7]
- It50 (time required to reach 50% of the polymerization) (tubulin): 65 min and 65 ± 7 min
- Effect on in vitro tubulin polymerization (tubulin): able to delay the polymerization process; also recorded: partial inhibitors of the polymerization process; also recorded: partial inhibitors of the in vitro polymerization of tubulin
- IC50 [1, 3]: 0.012 ± 0.001 µM
- G0/G1 (A-549 cells; A-549, 24 h, 2 µM): 31 ± 1%
- G2/M (A-549 cells; A-549, 24 h, 2 µM): 51 ± 2%
- S (A-549 cells; A-549, 24 h, 2 µM): 18 ± 1%
- cells accumulated in the G2/M phase (A-549 cells; [6]): more than 50%
- IC50 ([2]; Table 2): 0.41 ± 0.04 µM
